Reference: US20260287586A1, “METHODS OF TREATING TKI-RESISTANT AND SDH-DEFICIENT GIST” (priority 2023, published 2026)
Several values for one entry are separate records, joined by “and”; a condition that tells them apart may be missing. Equal values may be shown once. Entries after “also recorded” stand apart in the source; their conditions may differ.

Experiments:
[1] = test system: OS-RC-2 (SDHB-deficient) and 785-O (SDHB-competent) renal carcinoma cells; assay: Cell colony formation assay; assay type: cell-based; details: 7 days (SDHB-competent line), 10 days (OS-RC-2); FIG. 2B right
Method: Cells were extracted from SDH-deficient patient tumor tissues, seeded into 96-well plates, and incubated for 24 hours in GIST culture medium. […] Right panel, Colony formation assay in renal carcinoma cells 7860 (SDHB-wild-type) and OS-RC-2 (SDHB-deficient). Cells were seeded into 6-well plates and incubated overnight in complete culture medium.
For the colony formation assay, 1,000 cells were plated in 6-well plates per well, incubated for 7 to 14 days, then stained with 0.1% crystal violet and colony numbers counted.

[2] = Phase 1 trial HQP1351-SJ-0003 of olverembatinib: safety (adverse events, DLT, MTD/RP2D); assay type: in vivo, human; details: for Abdominal pain, treatment-emergent AE / Anemia, treatment-emergent AE / Constipation, treatment-emergent AE / Fatigue, treatment-emergent AE / Hyperuricemia, treatment-emergent AE / Increased alanine aminotransferase, treatment-emergent AE / Increased aspartate aminotransferase, treatment-emergent AE / Increased leukocyte count, treatment-emergent AE / Increased neutrophil count, treatment-emergent AE / Pyrexia, treatment-emergent AE: all patients N = 66
Text: The dose escalation aspect of the study enrolled patients with advanced and/or metastatic GIST or other solid tumors that were refractory or had relapsed after treatment with at least one TKI.
Eligible patients were adults (≥18 years) who had advanced and/or metastatic GISTs or other solid tumors confirmed by histology and/or cytology. The definition of SDH-deficient GIST was based on pathological phenotype with negative immunohistochemical staining for SDHB. Also required for study enrollment were Eastern Cooperative Oncology Group performance status (ECOG PS)≤2; and adequate renal, hepatic, cardiac, and bone marrow function. A full list of inclusion and exclusion criteria is in the protocol. Enrollment trends, ongoing review of study data, and evolving knowledge regarding the GIST treatment paradigm informed the study sponsor's medical director's and investigators' decision to analyze the SDH-deficient GIST patient subgroup separately.
Based on encouraging initial activity and favorable tolerability (Qiu, H., et al., J. Clin. Oncol. 40, 11513 (2022)), additional patients with SDH-deficient GIST were enrolled to further explore efficacy, and patients with TKI-naïve SDH-deficient GIST and adolescent patients (aged 12-18 years old) with SDH-deficient GIST were permitted. After data from the dose-escalation part of the study were reviewed during a meeting of the principal investigators and a postmarket dose was recommended to treat CML, all adult patients received 40 mg QOD (determined RP2D dose), and adolescent patients received 20 to 40 mg QOD based on body weight. If body weight was at least 40 kg, patients received 40 mg QOD; if within 30-40 kg, 30 mg QOD; and, if within 20-30 kg, 20 mg QOD. Patients with SDH-deficient malignant paraganglioma who had failed at least one treatment and were without appropriate treatment (as judged by investigators) were also enrolled. Treatment could continue until precluded by toxicity, noncompliance, withdrawal of consent, physician decision, progressive disease, death, or closure of the study. All protocol modifications, including those increasing the number of patients and cohorts in the dose-expansion aspect, are established in the trial protocol version dated May 27, 2022.
Physical examination and adverse events (AEs) were evaluated at each follow-up visit (day −28~day −1 after signed informed consent form); on days 1, 8, 15, and 22 during cycles 1 and 2; and on days 1 and 15 in cycle 3 and all subsequent cycles, up to 30 days after the final dose. All AEs were graded according to the US National Cancer Institute (NCI) Common Terminology Criteria for Adverse Events (CTCAE; version 4.03). Clinical laboratory investigations for routine blood examinations and serum chemistry parameters were performed during every cycle (on day 1); cycles 1 and 2 (on days 8, 15, and 22); and 30 days after the last dose of treatment. Urinalysis, coagulation, cardiac troponin I/T, lipase, amylase, and electrocardiograms were done at baseline; during cycles 1 and 2 (on days 1 and 15); cycle 3, 5, 7, and 9; every 3 cycles after cycle 9 (on day 1); and 14 days after the last dose of treatment. All patients underwent tumor imaging for response assessment via computed tomography or magnetic resonance imaging at screening and every two cycles (8 weeks) until progression or discontinuation. Target and nontarget lesions were assessed per Response Evaluation Criteria in Solid Tumors version 1.1 (RECIST v1.1).
The data cutoff for this analysis was Dec. 27, 2023. The safety population included all patients who received at least one dose of olverembatinib. The SDH-deficient GIST population (prespecified subgroup) included patients in the safety population. MTD was defined as the highest dose level with no more than one dose-limiting toxicity in six patients.

[3] = reported in ≥2 patients, N = 66

Cc1ccc(C(=O)Nc2ccc(CN3CCN(C)CC3)c(C(F)(F)F)c2)cc1C#Cc1cnc2[nH]ncc2c1 [Olverembatinib, olverembatinib]
inhibition of clone formation, OS-RC-2 versus 785-O [1]: more significantly inhibited | dose-limiting toxicities ([2]; 20-50 mg QOD): No dose-limiting toxicities were reported; also recorded: No dose-limiting toxicity was observed | maximum tolerated dose (MTD) ([2]; 20-50 mg QOD): not reached | dose reductions due to TRAEs ([2]; N = 66): dose reductions in two patients | patients who experienced grade ≥3 TRAEs ([2]; N = 66): 13.6% | patients who experienced treatment-related adverse events (TRAEs) ([2]; N = 66): 93.9% | treatment-related serious adverse events ([2]; N = 66): 7.6% | Anemia, treatment-related serious AE ([2]; N = 66, value is N): 2 N (%) | Coronary sclerosis, treatment-related serious AE ([2]; N = 66, value is N): 1 N (%) | Intestinal obstruction, treatment-related serious AE ([2]; N = 66, value is N): 1 N (%) | Leukemoid reaction, treatment-related serious AE ([2]; N = 66, value is N): 1 N (%) | subjects who experienced treatment-emergent adverse events (TEAEs) ([2]; all 66 subjects, oral 20-50 mg QOD): 100.0% | Abdominal pain, treatment-related AE ([2]; any grade, N = 66, value is N): 3 N (%) | Anemia, treatment-related AE ([2]; any grade, N = 66, value is N): 9 N (%) | Constipation, treatment-related AE ([2]; any grade, N = 66, value is N): 23 N (%) | Coronary sclerosis, treatment-related AE ([2]; any grade, N = 66, value is N): 1 N (%) | Decreased neutrophil count, treatment-related AE ([2]; any grade, N = 66, value is N): 3 N (%) | Fatigue, treatment-related AE ([2]; any grade, N = 66, value is N): 18 N (%) | Hypertension, treatment-related AE ([2]; any grade, N = 66, value is N): 3 N (%) | Hyperuricemia, treatment-related AE ([2]; any grade, N = 66, value is N): 12 N (%) | Hypoalbuminemia, treatment-related AE ([2]; any grade, N = 66, value is N): 10 N (%) | Increased CRP, treatment-related AE ([2]; any grade, N = 66, value is N): 11 N (%) | Increased WBC count, treatment-related AE ([2]; any grade, N = 66, value is N): 27 N (%) | Increased alanine aminotransferase, treatment-related AE ([2]; any grade, N = 66, value is N): 20 N (%) | Increased aspartate aminotransferase, treatment-related AE ([2]; any grade, N = 66, value is N): 23 N (%) | Increased creatinine, treatment-related AE ([2]; any grade, N = 66, value is N): 9 N (%) | Increased neutrophil count, treatment-related AE ([2]; any grade, N = 66, value is N): 22 N (%) | Increased platelet count, treatment-related AE ([2]; any grade, N = 66, value is N): 7 N (%) | Intestinal obstruction, treatment-related AE ([2]; any grade, N = 66, value is N): 2 N (%) | Leukemoid reaction, treatment-related AE ([2]; any grade, N = 66, value is N): 1 N (%) | Melanocytic nevi, treatment-related AE ([2]; any grade, N = 66, value is N): 15 N (%) | Abdominal pain, treatment-emergent AE ([2]; any grade): 15 N (%) and 15 (22.7) N (%) | Anemia, treatment-emergent AE ([2]; any grade): 31 N (%) and 31 (47.0) N (%) | Constipation, treatment-emergent AE ([2]; any grade): 27 N (%) and 27 (40.9) N (%) | Fatigue, treatment-emergent AE ([2]; any grade): 20 (30.3) N (%) | Hyperuricemia, treatment-emergent AE ([2]; any grade): 31 (47.0) N (%) | Increased alanine aminotransferase, treatment-emergent AE ([2]; any grade): 25 N (%) and 25 (37.9) N (%) | Increased aspartate aminotransferase, treatment-emergent AE ([2]; any grade): 31 N (%) and 31 (47.0) N (%) | Increased leukocyte count, treatment-emergent AE ([2]; any grade): 32 N (%) and 32 (48.5) N (%) | Increased neutrophil count, treatment-emergent AE ([2]; any grade): 25 N (%) and 25 (37.9) N (%) | Pyrexia, treatment-emergent AE ([2]; any grade): 28 N (%) and 28 (42.4) N (%) | Abdominal pain, treatment-related AE ([2]; grades 3-5, N = 66, value is N): 1 N (%) | Anemia, treatment-related AE ([2]; grades 3-5, N = 66, value is N): 1 N (%) | Constipation, treatment-related AE ([2]; grades 3-5, N = 66, value is N): 0 N (%) | Coronary sclerosis, treatment-related AE ([2]; grades 3-5, N = 66, value is N): 1 N (%) | Decreased neutrophil count, treatment-related AE ([2]; grades 3-5, N = 66, value is N): 2 N (%) | Fatigue, treatment-related AE ([2]; grades 3-5, N = 66, value is N): 1 N (%) | Hypertension, treatment-related AE ([2]; grades 3-5, N = 66, value is N): 1 N (%) | Hyperuricemia, treatment-related AE ([2]; grades 3-5, N = 66, value is N): 0 N (%) | Hypoalbuminemia, treatment-related AE ([2]; grades 3-5, N = 66, value is N): 0 N (%) | Increased CRP, treatment-related AE ([2]; grades 3-5, N = 66, value is N): 0 N (%) | Increased WBC count, treatment-related AE ([2]; grades 3-5, N = 66, value is N): 0 N (%) | Increased alanine aminotransferase, treatment-related AE ([2]; grades 3-5, N = 66, value is N): 1 N (%) | Increased aspartate aminotransferase, treatment-related AE ([2]; grades 3-5, N = 66, value is N): 1 N (%) | Increased creatinine, treatment-related AE ([2]; grades 3-5, N = 66, value is N): 0 N (%) | Increased neutrophil count, treatment-related AE ([2]; grades 3-5, N = 66, value is N): 0 N (%) | Increased platelet count, treatment-related AE ([2]; grades 3-5, N = 66, value is N): 0 N (%) | Intestinal obstruction, treatment-related AE ([2]; grades 3-5, N = 66, value is N): 1 N (%) | Leukemoid reaction, treatment-related AE ([2]; grades 3-5, N = 66, value is N): 1 N (%) | Melanocytic nevi, treatment-related AE ([2]; grades 3-5, N = 66, value is N): 0 N (%) | Abdominal pain, treatment-emergent AE ([2]; grades 3-5): 1 (1.5) N (%) | Anemia, treatment-emergent AE ([2]; grades 3-5): 4 (6.1) N (%) | Constipation, treatment-emergent AE ([2]; grades 3-5): 0 N (%) | Fatigue, treatment-emergent AE ([2]; grades 3-5): 1 (1.5) N (%) | Hyperuricemia, treatment-emergent AE ([2]; grades 3-5): 1 (1.5) N (%) | Increased alanine aminotransferase, treatment-emergent AE ([2]; grades 3-5): 2 (3.0) N (%) | Increased aspartate aminotransferase, treatment-emergent AE ([2]; grades 3-5): 2 (3.0) N (%) | Increased leukocyte count, treatment-emergent AE ([2]; grades 3-5): 0 N (%) | Increased neutrophil count, treatment-emergent AE ([2]; grades 3-5): 0 N (%) | Pyrexia, treatment-emergent AE ([2]; grades 3-5): 0 N (%) | patients who required treatment interruption ([2]; of 66 patients): 31.8% | RP2D ([2]; on alternate days (QOD)): 40 mg | tolerability ([2]; patients in the phase 1 trial): well tolerated | Anemia, serious treatment-emergent AE [2, 3]: 2 (3.0) N (%) | Intestinal obstruction, serious treatment-emergent AE [2, 3]: 5 (7.6) N (%)
